The values below come from article PMC10804372, “Degradation by Design: New Cyclin K Degraders from Old CDK Inhibitors” (ACS Chemical Biology, 2024).

For data set [1], the system named is Cyclin K. Kind of data set: Cyclin K levels by Western blot after single-concentration treatment. The format is cell-based, human. Particulars: HEK293T cells, 1 μM for 2 h; for Remaining Cyclin K (%): quantified from Western blots, mean ± SD, three independent experiments; for cyclin K degradation: Western blot. Here is the method: (§1) HEK293T human […] kidney cells were cultured in DMEM (Gibco/Life Technologies), containing 25 mM D-glucose, 4 mM L-glutamine, and 1 mM sodium pyruvate, and supplemented with 10% (v/v) FBS and 1% nonessential amino acids (Gibco/Life Technologies). Cells were incubated at 37 °C in a humidified atmosphere with 5% CO2.
(§2) Cells were washed with PBS and lysed (20 mM HEPES pH 7.5, 10% glycerol, 0.4 M KCl, 0.4% Triton X-100, 15 mM EDTA, and 1× protease and phosphatase inhibitors). The insoluble fraction was removed by centrifugation. Protein quantification was performed using a Bradford assay and compared to a BSA calibration curve. Equal amounts of lysates were run on SDS–PAGE 4–12% Bis–Tris Protein Gels (NuPAGE, Thermo Fisher Scientific) and then transferred onto Immobilon-P PVDF Membrane (Millipore, IPVH00010) using a Mini Trans-Blot Cell (Bio-Rad, 1703930). The membranes were blocked with 5% bovine albumin serum (BSA) in Tris-buffered saline with Tween 20 (TBS-T) and incubated with primary antibodies overnight at 4 °C. The membranes were washed three times with TBS-T and incubated with HRP-conjugated secondary antibody (BioRad) for 2 h. Membranes were washed again three times with TBS-T before being developed using Pierce ECL Western Blotting Substrate (Thermo, 32106) and visualized using LI-COR. Antibodies were purchased from Cell Signaling Technology: anti-GAPDH (D4C6R) and anti-DDB1 (D4C8) or Bethyl Laboratories: anti-Cyclin K (A301-939A). The following HRP-linked secondary antibodies were used by dilution in 5% BSA/TBS-T: antirabbit IgG (BioRad, 5213–2504) and antimouse IgG (BioRad, 103005).
(§3) Unedited blots containing the marker lane are available on request. Western blots were quantified using ImageJ. Cyclin K levels were normalized using GAPDH as a loading control. DC50 values were calculated from concentration–response curves using nonlinear regression fit to a 4-parameter curve by GraphPad Prism.

Data set [2] is described as follows: PAMPA permeability. In kind it is in vitro ADME. Particulars: for Papp: pH 7.4, PAMPA, pH7.4, read-out: pH7.4 Papp x 10^-6.
The target of data set [3] is T1, CDK12 (Homo sapiens, UniProt Q9NYV4).
T1 construct: purchased Eurofins DiscoverX (KINOMEscan service)
Kind of data set: KINOMEscan binding assay (Eurofins DiscoverX). Particulars: for Kd: KINOMEscan.

Data set [4] deals with Cyclin K. Briefly: Cyclin K degradation concentration-response (DC50, DMax) by Western blot. The format is cell-based, human. The note with it: HEK293T, Western blot quantification, 3 biological repeats; for DC50: read-out: CycK DC50. Here is the method: With the aim of comparing the degradation ability of the new analogues, we derived DC50 values by using Western blotting (Table 5). […] This approach has been previously used to improve the potency of BCL6 degraders.[33] We therefore also measured CDK12 affinity using the KINOMEscan binding assay (Table 5).[34]
as §1, §2, §3

Data set [5] deals with HEK293T cells. Briefly: Proteome-wide quantitation by mass spectrometry (TMT). Particulars: for log2FC compound 37: 1 uM 2h vs DMSO. In kind it is cell-based, human.

T1 sequence (Q9NYV4 whole entry): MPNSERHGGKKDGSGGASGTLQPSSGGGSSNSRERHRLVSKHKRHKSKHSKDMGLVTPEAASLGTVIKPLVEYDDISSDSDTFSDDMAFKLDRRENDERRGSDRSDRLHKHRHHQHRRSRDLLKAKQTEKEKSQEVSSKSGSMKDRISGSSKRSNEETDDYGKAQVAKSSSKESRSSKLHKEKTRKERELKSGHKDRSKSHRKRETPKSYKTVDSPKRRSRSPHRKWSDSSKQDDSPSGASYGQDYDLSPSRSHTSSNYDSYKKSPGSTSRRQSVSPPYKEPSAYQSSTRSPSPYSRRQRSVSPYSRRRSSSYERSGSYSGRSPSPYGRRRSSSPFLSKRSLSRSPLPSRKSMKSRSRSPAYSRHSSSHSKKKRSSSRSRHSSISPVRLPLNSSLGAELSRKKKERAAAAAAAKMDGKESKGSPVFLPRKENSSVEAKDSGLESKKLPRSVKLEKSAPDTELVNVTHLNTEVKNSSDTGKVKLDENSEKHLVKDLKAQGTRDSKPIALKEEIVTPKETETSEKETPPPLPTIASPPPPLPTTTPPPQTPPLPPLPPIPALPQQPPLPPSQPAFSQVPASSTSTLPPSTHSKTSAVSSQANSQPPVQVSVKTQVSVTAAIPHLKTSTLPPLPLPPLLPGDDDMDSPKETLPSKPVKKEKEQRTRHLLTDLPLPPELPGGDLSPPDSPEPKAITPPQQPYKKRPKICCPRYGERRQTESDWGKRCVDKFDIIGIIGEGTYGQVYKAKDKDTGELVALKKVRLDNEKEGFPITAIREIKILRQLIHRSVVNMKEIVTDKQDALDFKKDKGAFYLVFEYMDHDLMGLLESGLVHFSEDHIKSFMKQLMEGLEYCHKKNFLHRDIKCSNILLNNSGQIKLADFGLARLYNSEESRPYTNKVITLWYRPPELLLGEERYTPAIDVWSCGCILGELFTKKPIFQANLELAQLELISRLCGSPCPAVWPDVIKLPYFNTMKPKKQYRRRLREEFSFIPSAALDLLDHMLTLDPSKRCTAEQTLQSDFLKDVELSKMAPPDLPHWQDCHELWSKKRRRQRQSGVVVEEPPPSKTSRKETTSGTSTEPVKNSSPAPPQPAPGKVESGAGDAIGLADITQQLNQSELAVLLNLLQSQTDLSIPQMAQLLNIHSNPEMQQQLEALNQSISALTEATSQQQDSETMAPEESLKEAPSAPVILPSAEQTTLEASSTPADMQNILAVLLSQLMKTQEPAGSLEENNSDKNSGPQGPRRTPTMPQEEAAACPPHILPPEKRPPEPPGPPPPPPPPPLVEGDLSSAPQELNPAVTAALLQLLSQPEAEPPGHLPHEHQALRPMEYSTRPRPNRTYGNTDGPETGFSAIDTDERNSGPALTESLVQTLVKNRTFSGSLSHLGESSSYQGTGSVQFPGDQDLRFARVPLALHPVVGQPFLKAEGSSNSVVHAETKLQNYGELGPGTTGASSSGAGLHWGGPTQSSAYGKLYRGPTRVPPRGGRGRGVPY

As to `CC[C@H](CO)Nc1nc(NCc2ccc(-c3ccc(O)cn3)cc2)c2ncn(C(C)C)c2n1` [compound 8], the “Remaining Cyclin K (%)” value in data set [1] came out at 94 ± 9%. Also, the Papp in data set [2] is less than 0.3 ×10⁻⁶ cm/s.
As for `CC[C@H](CO)Nc1nc(NCc2ccc(-c3cn[nH]c3)cc2)c2ncn(C(C)C)c2n1` [compound 31], in data set [1], the “cyclin K degradation” value is given as “complete loss of degradation” and the “Remaining Cyclin K (%)” value worked out at 93 ± 10%. Also, in data set [2], the “PAMPA permeability” value is “low permeability” and the apparent permeability (Papp) is less than 0.2 ×10⁻⁶ cm/s.
On to `CC[C@H](CO)Nc1nc(NCc2ccc(-c3cc(=O)cc[nH]3)cc2)c2ncn(C(C)C)c2n1` [compound 15], for which, in data set [1], the “cyclin K degradation” value is reported as “total loss of degradation ability” and the “Remaining Cyclin K (%)” value was 89 ± 11%. Also, the Papp in data set [2] was less than 0.2 ×10⁻⁶ cm/s. Moreover, in data set [3], the equilibrium dissociation constant (Kd) was determined as 86 nM. Further, in data set [4], the “DMax (%)” value is recorded as greater than 95% and the DC50 was 18 nM.
As for `OCCC1CCCCN1c1cc(NCc2ccc(C3=CCOCC3)cc2)n2ncc(Br)c2n1` (stereo not drawn) [compound 37], in data set [1], the “cyclin K degradation” value is reported as “only partial degradation”. Moreover, the “Remaining Cyclin K (%)” value in data set [1] came out at 32 ± 11%. Besides, the “number of proteins showing at least a −0.5 log2 fold change” value in data set [5] (HEK293T, 1 μM, 2 h treatment) turned out to be 28 proteins. The “cyclin K log2 fold decrease” value in data set [5] (HEK293T, 1 μM, 2 h vs DMSO) was 0.75 log2 fold. In addition, the “log2FC compound 37” value in data set [5] (protein ARF4) is 0.5982; in data set [5] (protein C1orf167) it was 0.8136; in data set [5] (protein CBX6) it was -0.9913; in data set [5] (protein CCNE2), 0.934; in data set [5] (protein CCNK (Cyclin-K)) it was -0.7468; in data set [5] (protein CD9), 0.636. In addition, the “log2FC compound 37” value in data set [5] (protein CD59) is listed as 1.0368; in data set [5] (protein CD63), 1.1474; in data set [5] (protein CD151) it was 0.6898; in data set [5] (protein CDKL5), 1.0373; in data set [5] (protein CHCHD2) it was -1.0001; in data set [5] (protein CHTOP) it was -0.8383. In addition, the “log2FC compound 37” value in data set [5] (protein COPRS) is listed as 0.6; in data set [5] (protein COX6B1) it was 0.6513; in data set [5] (protein COX7A2), -1.2026; in data set [5] (protein DCDC1), 1.1229; in data set [5] (protein DDX56), -0.6203; in data set [5] (protein DHX58) it was 0.8865. The “log2FC compound 37” value is 0.6918 in data set [5] (protein ECI1); 0.7719 in data set [5] (protein EI24); 0.6256 in data set [5] (protein FAM234A); 0.6697 in data set [5] (protein FITM2); -2.375 in data set [5] (protein FYTTD1); -2.0131 in data set [5] (protein H2AC6). Moreover, the “log2FC compound 37” value in data set [5] (protein H2AC14) was -1.9547; in data set [5] (protein HES1), -0.614; in data set [5] (protein HEY1), -0.6221; in data set [5] (protein HMGN2), -0.636; in data set [5] (protein KCTD1), 0.7125; in data set [5] (protein LIPA) it was 0.6704. The “log2FC compound 37” value in data set [5] (protein LPCAT3) is given as 1.2861; in data set [5] (protein LPIN2), 0.6164; in data set [5] (protein LSM1) it was 0.8572; in data set [5] (protein MBTPS2) it was 0.6567; in data set [5] (protein MEIS1) it was -0.7346; in data set [5] (protein MGARP), 0.6836. Besides, the “log2FC compound 37” value in data set [5] (protein MSMO1) is on record as 0.6345; in data set [5] (protein MT-ND4) it was 0.6222; in data set [5] (protein NSA2), -1.3835; in data set [5] (protein NXT2), 1.1373; in data set [5] (protein PPP1CB) it was -0.7306; in data set [5] (protein PPP1R15B), -0.7195. Further, the “log2FC compound 37” value in data set [5] (protein PRNP) is recorded as 0.8396; in data set [5] (protein RER1) it was 0.5962; in data set [5] (protein RPF1) it was -0.9869; in data set [5] (protein RPS14), -0.5979; in data set [5] (protein RPS29), -0.7373; in data set [5] (protein SIAE), 0.6299. The “log2FC compound 37” value in data set [5] (protein SLC44A2) was 0.8263; in data set [5] (protein SNAI2), -1.0919; in data set [5] (protein SURF6) it was -0.5977; in data set [5] (protein TMSB4X), -0.7637; in data set [5] (protein TOB1) it was -1.2431; in data set [5] (protein TOB2) it was -0.8728. In addition, the “log2FC compound 37” value in data set [5] (protein TVP23C) is 0.6132; in data set [5] (protein WHAMM) it was -1.0385; in data set [5] (protein ZBTB17), 0.799; in data set [5] (protein ZKSCAN2), -0.5989; in data set [5] (protein ZNF92), -0.7406; in data set [5] (protein ZNF385A) it was -0.6523. Besides, the “fold better CDK12 affinity versus CR8/seliciclib-core analogue” value in data set [3] (36 vs 1, 37 vs 21) is reported as 25 fold. Also, the Kd in data set [3] stood at 12 nM. Further, the “DMax (%)” value in data set [4] worked out at 75%. In data set [4], the DC50 was 41 nM.
Turning to `CC[C@H](CO)Nc1nc(NCc2ccc(-c3cn(C)cn3)cc2)c2ncn(C(C)C)c2n1` [compound 30], in data set [1], the “cyclin K degradation” value is on record as “decreased degradation ability” and the “Remaining Cyclin K (%)” value was 38 ± 21%. Further, in data set [2], the apparent permeability coefficient (Papp) was less than 0.3 ×10⁻⁶ cm/s.
Taken in the same sequence, the figures for `CC[C@H](CO)Nc1nc(NCc2ccc(-c3ncccc3O)cc2)c2ncn(C(C)C)c2n1` [compound 20] were “reduced degradation ability compared to CR8”, 35 ± 3% and less than 0.4 ×10⁻⁶ cm/s.
For the compound `CC[C@H](CO)Nc1nc(NCc2ccc(N3CCOCC3)cc2)c2ncn(C(C)C)c2n1` [compound 25], in data set [1], the “cyclin K degradation” value is given as “only partial degradation” and the “Remaining Cyclin K (%)” value stood at 41 ± 23%. Moreover, in data set [2], the “PAMPA permeability” value is on record as “comparable permeabilities” and the Papp is 41 ×10⁻⁶ cm/s.
With `CC[C@H](CO)Nc1nc(NCc2ccc(C3CCCCC3)cc2)c2ncn(C(C)C)c2n1` [compound 23], in data set [1], the “cyclin K degradation” value was “degradation ability was significantly reduced” and the “Remaining Cyclin K (%)” value came out at 74 ± 10%. Also, the apparent permeability coefficient (Papp) in data set [2] was 12.7 ×10⁻⁶ cm/s.
